Test [1] deals with T1, cystine/glutamate antiporter (system Xc′) (Homo sapiens, UniProt Q9UPY5).
T1 construct: endogenous in cells; host or cells: AsPC-1
T1 sequence (Q9UPY5 1-501): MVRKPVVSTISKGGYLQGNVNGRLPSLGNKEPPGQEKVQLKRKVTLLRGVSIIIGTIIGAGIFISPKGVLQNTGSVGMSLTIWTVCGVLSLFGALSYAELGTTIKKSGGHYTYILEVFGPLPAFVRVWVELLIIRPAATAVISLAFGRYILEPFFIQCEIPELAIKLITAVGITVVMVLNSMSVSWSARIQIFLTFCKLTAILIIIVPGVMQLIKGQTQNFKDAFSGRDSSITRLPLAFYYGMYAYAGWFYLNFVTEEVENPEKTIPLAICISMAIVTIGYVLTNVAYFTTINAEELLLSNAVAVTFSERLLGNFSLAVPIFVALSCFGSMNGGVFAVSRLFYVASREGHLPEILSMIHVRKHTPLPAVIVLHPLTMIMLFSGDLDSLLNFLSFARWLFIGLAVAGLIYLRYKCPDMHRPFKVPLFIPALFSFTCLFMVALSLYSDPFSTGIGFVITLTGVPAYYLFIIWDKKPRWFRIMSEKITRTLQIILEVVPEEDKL
T1 sequence (P08195 1-529 partner): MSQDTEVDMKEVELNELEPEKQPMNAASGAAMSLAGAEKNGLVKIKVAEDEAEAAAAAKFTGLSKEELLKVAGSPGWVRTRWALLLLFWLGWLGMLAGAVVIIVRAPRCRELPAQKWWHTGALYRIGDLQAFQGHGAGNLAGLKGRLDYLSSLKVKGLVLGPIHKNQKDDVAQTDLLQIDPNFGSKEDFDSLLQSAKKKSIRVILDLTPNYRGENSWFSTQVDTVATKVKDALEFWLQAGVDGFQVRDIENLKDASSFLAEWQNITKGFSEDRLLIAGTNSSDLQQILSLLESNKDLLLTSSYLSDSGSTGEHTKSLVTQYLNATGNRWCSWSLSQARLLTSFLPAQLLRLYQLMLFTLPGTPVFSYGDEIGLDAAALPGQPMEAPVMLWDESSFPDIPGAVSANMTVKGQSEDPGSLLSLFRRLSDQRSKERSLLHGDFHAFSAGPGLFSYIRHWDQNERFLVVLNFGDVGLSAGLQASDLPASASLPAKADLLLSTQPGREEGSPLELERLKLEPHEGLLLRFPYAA
Nature of the test: Cystine uptake assay in AsPC-1 cells. It counts as cell-based. The conditions noted are these: FIG. 11A; for reduction in cystine uptake: same concentration of each compound (200 μM), DMSO control. As to the method:
In these experiments, cystine uptake assay was performed as previously described (Dixon, S. J. et al. Cell 2012; 149: 1060-1072). Briefly, […] AsPC-1 cells/well were seeded overnight in 6 well plate. The next day, cells were washed twice in pre-warmed Na^+-free uptake buffer (137 mM choline chloride, 3 mM KCl, 1 mM CaCl2, 1 mM MgCl2, 5 mM D-glucose, 0.7 mM K2HPO4, and 10 mM HEPES [pH 7.4]). Subsequently, cells were incubated for 10 minutes at 37° C. in 1 ml of the uptake buffer to deplete cellular amino acids. The buffer was then replaced with 600 μl uptake buffer containing 200 μM of SW V-49s and 0.12 μCi (80-110 mCi/mmol) of L-[3,3′-^14C]-cystine (American Radiolabeled Chemicals. St Louis. Mo.) and incubated for 3 minutes at 37° C. After that, cells were washed three times with ice-cold uptake buffer and lysed in 500 μl of 0.1 M NaOH. To this lysate, 1 ml of scintillation fluid was added, and radioactive counts per minute were obtained by using a scintillation counter.
To evaluate this mechanism. AsPC-1 cells were plated in 6 well plate for 24 hours. Cells were then treated with the same concentration of SV119, Erastin, combination of SV119 and Erastin. SW V-49s, and DMSO as a control. After that, a cystine uptake assay was performed. […] Erastin, and combination of SV 119 and Erastin, respectively (p=0.004, FIG. 11A).

The test system of another test is KCKO cells. Nature of the test: Viability assay (CELLTITER-GLO), 24 hours treatment. In kind it is cell-based, murine. The procedure:
(§1) In these experiments, viability assays after 24 hours treatment of human and murine pancreatic cancer cell lines and synovial sarcoma cell lines with SW V-49s or its parent compounds SV119 and Erastin, both singly and in combination, were performed. […] In comparison.
(§2) Cytotoxicity of the drugs was evaluated by CELLTITER-GLO®. Luminescent cell viability assay (Promega, Madison, Wis.). Pancreatic cell lines were plated at a density of 2×10^4/well in white 96 well, clear bottom plates for 24 hours prior to treatment. Drugs were dissolved in DMSO and serially diluted in culture medium to achieve the final concentration of DMSO less than 1%. Cells were then treated for 24 hours and 100 μl of the CELLTITER-GLO® reagent was added to each well. The contents of the plates were mixed using an orbital shaker and subsequently incubated for 10 minutes at room temperature. Luminescence signal was measured using a multi-mode microplate reader (BioTek instruments. Winooski, Vt.). Different drug concentrations were assayed in triplicate. To evaluate the efficacy of the drugs, IC50 of the compounds was calculated on a panel of human and mouse derived pancreatic cancer cell lines in vitro. Cells were treated for 24 hours with SW V-49s, SV119, Erastin, and an equimolar mixture of SV119 and Erastin, then CELLTITER-GLO® viability assay was performed.
In general terms: Cellular ATP, detected with luciferase, serves as a proxy for viable cell number.

In the next test the test system is AsPC-1. The test is described as above. It counts as cell-based, human. The procedure: as §1, §2
AsPC-1 and SYO-1 cells were plated in 96 well plate overnight then treated with similar concentrations of Erastin for 24 hours. Viability assay was performed after 24 hours. […] (p<0.0001), (FIG. 10).

The source of these data is patent US10975069B2, “Sigma-2 receptor ligand drug conjugates as antitumor compounds, methods of synthesis and uses thereof” (priority 2014, dated 2021).

Read-outs that look alike come from different tables or passages of the source.

In the case of `CCOc1ccccc1-n1c(C(C)N2CCN(C(=O)COc3ccc(Cl)cc3)CC2)nc2ccccc2c1=O` (stereo not shown) [Erastin], the “reduction in cystine uptake” value in test [1] is on record as 41%. Further, the IC50 was over 150 µM in the test on KCKO cells (Mus musculus, 24 h, read-out: IC50 ± SEM, KCKO) and over 150 µM in the test on AsPC-1 (Homo sapiens, ASPC1, 24 h, read-out: IC50 ± SEM, AsPC-1). In the test on AsPC-1 (40 μM, 24 hours, AsPC-1 cells, FIG. 10), the death of cells came to 2%.
Turning to `CCOc1ccccc1-n1c(CN2CCN(C(=O)COc3ccc(CNCCCCCCN4C5CCCC4CC(OC(=O)Nc4cc(C)ccc4OC)C5)cc3)CC2)nc2ccccc2c1=O.O=C(O)C(=O)O` (stereo not shown) [SW V-49s], the “fold less cysteine uptake” value in test [1] was 3.7 fold. The “reduction in cystine uptake” value in test [1] is listed as 85%. Besides, the IC50 in the test on KCKO cells (Mus musculus, 24 h, read-out: IC50 concentration) was found to be 2.2 µM; in the test on KCKO cells (Mus musculus, 24 hours, mean ± SEM, n ≥ 3, read-out: IC50 ± SEM, KCKO) it was 2.4 ± 0.2 µM; in the test on AsPC-1 (Homo sapiens, ASPC1, 24 h, read-out: IC50 concentration), 3 µM; in the test on AsPC-1 (Homo sapiens, ASPC1, 24 hours, mean ± SEM, n ≥ 3, read-out: IC50 ± SEM, AsPC-1), 3.2 ± 0.3 µM.
In the case of `COc1ccc(C)cc1NC(=O)OC1C[C@H]2CCC[C@@H](C1)N2CCCCCCN` (stereo partly shown) [SV119, reference compound], the “reduction in cystine uptake” value in test [1] was 25%. In addition, the IC50 was determined as 68.7 ± 10.1 µM in the test on KCKO cells (24 hours, mean ± SEM, n ≥ 3, read-out: IC50 ± SEM, KCKO) and 111 ± 8.3 µM in the test with AsPC-1 (24 hours, mean ± SEM, n ≥ 3, read-out: IC50 ± SEM, AsPC-1).
